# Results taken from US20250213639A1 (U.S. NUTRACEUTICALS, INC., d/b/a Valensa International, priority 2021, published 2025).
# Key:
# [1] = oral, guinea pigs, fur and skin; cited from earlier work
# 5α-Reductase-1 = biological target: T1, 5α-Reductase-1 (Homo sapiens, UniProt P18405); test: 5α-reductase inhibition by constituents of saw palmetto extract (FIGS. 2, 3), Type 1; type: biochemical
# T1 sequence (P18405 1-259): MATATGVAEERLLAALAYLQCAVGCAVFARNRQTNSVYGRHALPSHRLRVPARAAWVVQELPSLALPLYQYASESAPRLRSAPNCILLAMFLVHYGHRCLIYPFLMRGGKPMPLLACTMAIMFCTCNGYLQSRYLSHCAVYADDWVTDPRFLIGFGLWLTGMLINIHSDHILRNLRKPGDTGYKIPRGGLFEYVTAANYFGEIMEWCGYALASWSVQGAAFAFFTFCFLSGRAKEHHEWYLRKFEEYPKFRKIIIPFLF
# normal mice = conditions: after about 20 days, normal shaved mice; cited from earlier work
# [2] = tested on: men with mild to moderate androgenic alopecia; conditions: 1 milligram per day, 24 months; cited from earlier work
# DHT = conditions: cited from earlier work
# 5α-Reductase-2 = biological target: T2, 5α-Reductase-2 (Homo sapiens, UniProt P31213); test: 5α-reductase inhibition by constituents of saw palmetto extract (FIGS. 2, 3), Type 2; type: biochemical
# T2 sequence (P31213 1-254): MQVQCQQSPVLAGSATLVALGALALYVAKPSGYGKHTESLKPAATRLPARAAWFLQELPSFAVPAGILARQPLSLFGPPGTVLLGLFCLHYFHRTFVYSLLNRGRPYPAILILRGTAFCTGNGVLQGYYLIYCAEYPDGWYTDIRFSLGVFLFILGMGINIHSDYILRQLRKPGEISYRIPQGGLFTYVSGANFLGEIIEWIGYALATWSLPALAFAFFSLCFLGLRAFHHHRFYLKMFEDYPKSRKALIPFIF
smiles,measurement,setting,value
CC/C=C\C/C=C\C/C=C\CCCCCCCC(=O)O [Linolenic acid],share of that lipid found in the free fatty acid form,[1],Over 70%
CCCCC/C=C\C/C=C\CCCCCCCC(=O)O [linoleic acid],effectiveness for 5α-Reductase-1,5α-Reductase-1,beneficial for both
same,hair growth,normal mice,about 100%
CC(C)(C)NC(=O)[C@H]1CC[C@H]2[C@@H]3CC[C@H]4NC(=O)C=C[C@]4(C)[C@H]3CC[C@]12C [finasteride],men who noted an improvement,[2],68%
same,decrease of the production of DHT,DHT; in some formulations,about 70%
CCCCCCCC/C=C\CCCCCCCC(=O)O [oleic acid],effectiveness for 5α-Reductase-1,5α-Reductase-1,especially effective
same,effectiveness for 5α-Reductase-2,5α-Reductase-2,not as much
C[C@]12C=CC(=O)N[C@@H]1CC[C@@H]1[C@@H]2CC[C@]2(C)[C@@H](C(=O)Nc3cc(C(F)(F)F)ccc3C(F)(F)F)CC[C@@H]12 [Dutasteride],reduction of DHT levels in the entire body,DHT; in vivo,more than 99%
